Data on six compounds can be found in patent US20250290915A1, “METHOD FOR PREDICTING RESPONSIVENESS TO THERAPY” (CANCERTAIN LIMITED, priority 2022, published 2025).

Experiment [1] relates to Circulating Tumour Cells (CTCs) from a patient with renal cancer. As to the kind of experiment: Drug response score assay on CTCs (with CD45+ cells for immunotherapy) from blood, Example 7. In kind it is cell-based, human. Also on record: key to Drug response score, conc. 1 / Drug response score, conc. 2 / Drug response score, conc. 3 / Drug response score, conc. 4: normalized drug response metric per Gupta et al. 2020. Particulars: for Drug response score, conc. 1: conc. 1: Pembr 20 μg/ml (CTCs + CD45+ cells), Docetax 0.02 μg/ml, Gemcit 2 μg/ml, Topo 5 μg/ml, Etop 1 μg/ml, Eribul 5 μg/ml (CTCs); for Drug response score, conc. 1 / Drug response score, conc. 2 / Drug response score, conc. 3 / Drug response score, conc. 4: t96h; for Drug response score, conc. 2: conc. 2: Pembr 40 μg/ml (CTCs + CD45+ cells), Docetax 0.2 μg/ml, Gemcit 10 μg/ml, Topo 10 μg/ml, Etop 4 μg/ml, Eribul 10 μg/ml (CTCs); for Drug response score, conc. 3: conc. 3: Pembr 100 μg/ml (CTCs + CD45+ cells), Docetax 2 μg/ml, Gemcit 20 μg/ml, Topo 50 μg/ml, Etop 20 μg/ml, Eribul 20 μg/ml (CTCs); for Drug response score, conc. 4: conc. 4: Pembr 160 μg/ml (CTCs + CD45+ cells), Docetax 10 μg/ml, Gemcit 40 μg/ml, Topo 100 μg/ml, Etop 100 μg/ml, Eribul 40 μg/ml (CTCs); for Drug sensitivity as calculated by the assay (interpretation of Drug Response Scores) / effectiveness on Circulating Tumour Cells under laboratory conditions: renal cancer CTCs; for Drug sensitivity as calculated by the assay (interpretation of Drug Response Scores): Table 23. Here is the method: CD45^+ cells and circulating tumour cells (CTCs) were isolated from a blood sample provided by each subject.
CD45 separation was performed by adding human CD45 microbeads (50 μl/ml blood), incubating for 15 minutes at 4° C. and then processing using an AutoMACS machine. This separates the blood sample into CD45^+ and CD45^−cells in 2 separate falcons. The falcon tubes are then centrifuged at 1200 rpm for 5 minutes.
The supernatant was removed from the CD45^+falcon tube, and the cells resuspended in DMEM with 2 μl Cell Tox, 2 μl MT and 2 μl MT. 20 μl of the resuspended CD45^+ cells was then plated in each well which will contain an immunotherapy treatment.
The supernatant was removed from the CD45^−falcon tube, and the CD45^−cells contacted with 100 μl of FcR block and 100 μl of CD326 (EpCAM) MicroBeads, followed by incubation at […] 4° C. for 30 minutes. The CD45^−cells were then processed using an AutoMACS machine to separate the EpCAM positive and negative cells into 2 separate falcon tubes. The EpCAM-cells were discarded. The supernatant was removed from the EpCAM^+ cells, and the cells resuspended in DMEM with 2 μl Cell Tox, 2 μl MT and 2 μl MT. 20 μl of the resuspended pellet was then added to all sample wells excluding a blank. After all wells are added to, a cell count was conducted on the […] to determine the number of circulating tumour cells (CTCs).
(§1) The different cell types were each divided equally into populations, depending on the number of drugs/concentrations to be tested and plated on a cell-culture plate pre-coated with a scaffold of polycaprolactone (PCL) electrospun fibres and incubated at 37° C., 5% CO2, for 5 to (typically 10) minutes to facilitate cell attachment. After attachment, an initial imaging step was carried out using the RealTime-Glo™ MT assay from Promega (Catalogue No. G9711)) and the CellTox™ Green Cytotoxicity Assay (Promega, Catalogue No. G8741), carried out according to manufacturer's instructions. Following this initial imagining, the immunotherapeutic and/or chemotherapeutic agents were added to the cell populations as indicated below. After 10 minutes, the imagining step was repeated. The cell populations were then incubated at 37° C., 5% CO2 for 48 hours. The imaging step was then repeated. The cell populations were then re-dosed with the same immunotherapeutic and/or chemotherapeutic agents as indicated below, and incubated at 37° C., 5% CO2 for a further 48 hours. After this second 48 hour incubation, the imagining step was repeated for a final time.
At the end of this culture period, dose response scores were calculated using a normalized drug response metric as described in Gupta et al. (Communications Biology volume 3, Article number: 42 (2020), https://doi.org/10.1038/s42003-020-0765-z). The start readout for a given immunotherapeutic or chemotherapeutic agent at a given concentration was the to readout for said immunotherapeutic or chemotherapeutic agent at a specified concentration. The end readout for a given immunotherapeutic or chemotherapeutic agent at a given concentration was the final timepoint reading (t96h) for said immunotherapeutic or chemotherapeutic agent at a specified concentration.
The positive control start readout for a given drug/concentration was the to readout for the corresponding drug at a specified concentration. The positive control end readout for the corresponding drug at a specified concentration was the final timepoint reading (t96h) for the corresponding blank well.
The negative control start and end readouts for a given immunotherapeutic or chemotherapeutic agent at a given concentration were the to and final timepoint reading (t96h) respectively for blank cell or blank immuno cell well respectively.
The sensitivity or resistance of a subject's cancer to a given immunotherapeutic or chemotherapeutic agent was determined based on the calculated drug response score as shown in Table 2. […]

The test system of experiment [2] is Cancer Cells from tissue sample (CSCs, tumour marker+ cells) of a patient with GI cancer (Cholangio Carcinoma, stage 4). The experiment can be described thus: Drug response score assay on tissue sample, Example 9. In kind it is cell-based, human. Particulars: for effectiveness on Cancer Cells from tissue sample under laboratory conditions: GI cancer (Cholangio Carcinoma) tissue sample; for Drug sensitivity as calculated by the assay, Tissue: interpretation based on Drug Response Scores; for Drug sensitivity as calculated by the assay, Tissue / Drug response score, conc. 1 / Drug response score, conc. 2 / Drug response score, conc. 3 / Drug response score, conc. 4: tissue sample; for Drug response score, conc. 1: conc. 1 per Table 27B: Pem 20, Niv 20, Atez 100, Pacli 0.05, Irino 5, Beva 1 μg/ml, Len 50, 5-FU 250 ng/ml; for Drug response score, conc. 2: conc. 2 per Table 27B: Pem 40, Niv 40, Atez 200, Pacli 0.1, Irino 10, Beva 2 μg/ml, Len 100, 5-FU 500 ng/ml; for Drug response score, conc. 3: conc. 3 per Table 27B: Pem 100, Niv 80, Atez 400, Pacli 0.2, Irino 25, Beva 4 μg/ml, Len 200, 5-FU 1000 ng/ml; for Drug response score, conc. 4: conc. 4 per Table 27B: Pem 160, Niv 160, Atez 800, Pacli 1, Irino 50, Beva 8 μg/ml, Len 400, 5-FU 2000 ng/ml. Here is the method: Where a tissue sample was provided by each subject, cancer stem cells (CSCs, CD133^+), were isolated from said sample. Tumour marker cells were further isolated from each tissue sample. The remaining cells were designated tumour marker^+ cells.
First, disaggregation of the tissue samples was carried out. Disaggregation was dependent on the size of the tissue sample and the method of retrieval: • EBUS (Endobronchial Ultrasound Scan and Biopsy)—very small fragments of tissue in solution-spun at 1200 rpm for 5 minutes to collect tissue pellet • Bronchoscopy-larger fragments with larger amount of blood vessels • Broncho-lavage-similar to EBUS, spun at 1200 rpm for 5 minutes to collet tissue pellet
Once a pellet of tissue obtained, DMEM added to the tissue pellet and the material forced through a […] Smart strainer. Once a cell suspension was achieved, this was spun at 1200 rpm for 5 minutes and the supernatant removed. The cells were then resuspended to a volume of 60 μl.
20 μl of FcR block and 20 μl of CD133 microbeads were added to the resuspended cells, followed by incubation for 15 minutes at 4° C. The cells were then processed using an AutoMACS machine. This separates the […] into CD133^+ and CD133^− cells in 2 separate falcons. The falcon tubes are then centrifuged at 1200 rpm for 5 minutes.
The supernatant was removed from the CD133+falcon tube, and the cells resuspended in DMEM with 2 μl Cell Tox, 2 μl MT and 2 μl MT. 20 μl of the resuspended […] was then plated in each well which will contain an immunotherapy treatment.
The supernatant was removed from the CD133^− falcon tube, and the CD133^− cells contacted with 40 μl of a tumour separation microbeads cocktail containing microbeads bound to anti-CD31, anti-CD45, anti-Glycophorin-A (Gly-A) and an anti-fibroblast antibody.
This cocktail is used to separate out tumour marker cells using MACS, by separating out CD31^+, CD45^+ and Gly-A^+ cells. In addition, anti-fibroblast antibody-labelled beads are also used. The cocktail is added to the CD133^− falcon tube, followed by incubation for 15 minutes at 4° C. MACS is carried out using an AutoMACS machine. This cells which are not bound by the CD31, CD45, Gly-A and anti-fibroblast antibody beads are the tumour marker^+ cells.
as §1
At the end of this culture period, dose response scores were calculated using a normalized drug response metric as described in Gupta et al. (Communications Biology volume 3, Article number: 42 (2020), https://doi.org/10.1038/s42003-020-0765-z). The start readout for a given immunotherapeutic or chemotherapeutic agent at a given concentration was the to readout for said immunotherapeutic or chemotherapeutic agent at a specified concentration. […]

On to `CC(=O)O[C@@]12CO[C@@H]1C[C@H](O)[C@@]1(C)C(=O)[C@H](O)C3=C(C)[C@@H](OC(=O)[C@H](O)[C@@H](NC(=O)OC(C)(C)C)c4ccccc4)C[C@@](O)([C@@H](OC(=O)c4ccccc4)[C@H]21)C3(C)C` [Docetaxel], for which, in experiment [1], the “Drug response score, conc. 1” value came to 0.0585; the “Drug response score, conc. 2” value is −0.1811; the “Drug response score, conc. 3” value turned out to be 0.0514; the “Drug response score, conc. 4” value is reported as −0.1468. Also, the “Drug sensitivity as calculated by the assay (interpretation of Drug Response Scores)” value in experiment [1] is “Sensitive (S+)”.

`COc1cc([C@@H]2c3cc4c(cc3[C@@H](O[C@@H]3O[C@@H]5CO[C@@H](C)O[C@H]5[C@H](O)[C@H]3O)[C@H]3COC(=O)[C@H]23)OCO4)cc(OC)c1O` [Etoposide]: in experiment [1], the “Drug response score, conc. 1” value was −0.2179; the “Drug response score, conc. 2” value was −0.1141; the “Drug response score, conc. 3” value is on record as −0.1357; the “Drug response score, conc. 4” value is recorded as −0.0050. In addition, in experiment [1], the “effectiveness on Circulating Tumour Cells under laboratory conditions” value is on record as “Sensitive S++” and the “Drug sensitivity as calculated by the assay (interpretation of Drug Response Scores)” value was “Sensitive (S++)”.

`COc1cc2nccc(Oc3ccc(NC(=O)NC4CC4)c(Cl)c3)c2cc1C(N)=O` [Lenvatinib]: in experiment [2], the “effectiveness on Cancer Cells from tissue sample under laboratory conditions” value (shortened to “effectiveness on Cancer Cells”) was “S+”; the “Drug sensitivity as calculated by the assay, Tissue” value is recorded as “S+”; the “Drug response score, conc. 1” value is recorded as 0.9082; the “Drug response score, conc. 2” value was found to be 0.9132. For the same compound, in experiment [2], the “Drug response score, conc. 3” value is 0.8739 and the “Drug response score, conc. 4” value is recorded as 0.9434.

Consider `CC(=O)O[C@H]1C(=O)[C@@]2(C)[C@H]([C@H](OC(=O)c3ccccc3)[C@]3(O)C[C@H](OC(=O)[C@H](O)[C@@H](NC(=O)c4ccccc4)c4ccccc4)C(C)=C1C3(C)C)[C@]1(OC(C)=O)CO[C@@H]1C[C@@H]2O` [Paclitaxel], for which, in experiment [2], the “Drug response score, conc. 1” value came to 0.9365; the “Drug response score, conc. 2” value was 0.9526; the “Drug response score, conc. 3” value came to 0.9072; the “Drug response score, conc. 4” value is 0.9683.

For Nivolumab, in experiment [2], the “effectiveness on Cancer Cells” value was “S+”; the “Drug sensitivity as calculated by the assay, Tissue” value is recorded as “S+”; the “Drug response score, conc. 1” value is on record as 0.9424; the “Drug response score, conc. 2” value turned out to be 0.9636. Besides, in experiment [2], the “Drug response score, conc. 3” value turned out to be 0.9018 and the “Drug response score, conc. 4” value is listed as 0.6833.

In the case of Pembrolizumab, in experiment [1], the “Drug response score, conc. 1” value is reported as −0.0194; the “Drug response score, conc. 2” value amounted to 0.1577; the “Drug response score, conc. 3” value amounted to 0.0468; the “Drug response score, conc. 4” value is reported as −0.0364. In experiment [1], the “effectiveness on Circulating Tumour Cells under laboratory conditions” value was “Sensitive S+” and the “Drug sensitivity as calculated by the assay (interpretation of Drug Response Scores)” value is reported as “Sensitive (S+)”. Also, in experiment [2], the “effectiveness on Cancer Cells” value was “S+”; the “Drug sensitivity as calculated by the assay, Tissue” value is reported as “S+”; the “Drug response score, conc. 1” value is on record as 0.9764; the “Drug response score, conc. 2” value is listed as 0.9717. In addition, in experiment [2], the “Drug response score, conc. 3” value is recorded as 0.9672 and the “Drug response score, conc. 4” value came out at 0.8354.
